According to patent publication EP1038880B1, “Androstanes and pregnanes for allosteric modulation of GABA receptor” (priority 1994, dated 1995):

Molecular target: GR complex
Test: [35S]TBPS binding assay (inhibition of [35S]TBPS binding, cerebral cortex P2 homogenate)
Design: species or system rat
Conditions: for IC50: 2 nM [35S]TBPS, rat cerebral cortex P2 homogenate; for IMAX: maximum inhibition of [35S]TBPS binding
Method: We performed several experiments to determine the nature of the modulation of [^35S]TBPS as affected by the compounds of the invention.
These procedures were performed as follows:
Brains from male Sprague-Dawley rats were removed immediately following sacrifice and the cerebral cortices dissected over ice. […] Briefly, the cortices were gently homogenized in 0.32 M sucrose followed by centrifugation at 1000 x g for 10 minutes. The supernatant was collected and centrifuged at 9000 x g for 20 minutes. The resultant P2 pellet was suspended as a 10% (original wet weight/volume) suspension in 50 mM Na/K phosphate buffer (pH 7.4) 200 mM NaCl to form the homogenate.
One hundred microliter […] aliquots of the P2 homogenate (0.5 milligrams (mg) protein) were incubated with 2 nanomolar (nM) [^35S]TBPS (70-110 curies/millimole; New England Nuclear, Boston, MA) in the presence or absence of the naturally occurring steroids or their synthetic derivatives to be tested. The tested compounds were dissolved in dimethylsulfoxide (Baker Chem. Co., Phillipsbury, NJ) and added to the incubation mixture in 5 µL aliquots. The incubation mixture was brought to a final volume of 1 mL with buffer. Non-specific binding was defined as binding in the presence of […] TBPS. The effect and specificity of GABA (Sigma Chem. Co., St. Louis, MO) was evaluated by performing all assays in the presence of GABA plus (+)bicuculline (Sigma Chem. Co.). maintained at 25°C for 90 minutes (steady state conditions) were terminated by rapid filtration through glass fiber filters (No. 32, Schleicher and Schuell, Keene, NH). Filter-bound radioactivity was quantitated by liquid scintillation spectrophotometry.
Various compounds were screened to determine their potential as modulators of [^35S]TBPS binding in vitro. These assays were performed in accordance with the above discussed procedures. […] It is an indication of a compound's in vitro potency. Maximum inhibition is an indication of a compound's in vitro efficacy.

## 3β-(4'-Aminophenyl)ethynyl-3β-hydroxy-5β-20-one
  IC50: 22500 nM
  IMAX: 103%

## CC(=O)[C@H]1CC[C@H]2[C@@H]3CC[C@H]4C[C@@](O)(C#CCC(C)O)CC[C@]4(C)[C@H]3CC[C@]12C (mixture of isomers) [3β-[4'(R/S)-hydroxy-1'-pentynyl]-3α-hydroxy-5α-pregnan-20-one]
  IC50: 178 nM
  IMAX: 101%

## C[C@]12CC[C@@H](O)C[C@H]1CC[C@@H]1[C@@H]2CC[C@]2(C)[C@@H](C(=O)Cn3cnc([N+](=O)[O-])c3)CC[C@@H]12 [3a-hydroxy-21-[1H-(4-nitro)imidazol-1-yl)-5β-pregnan-20-one]
  IC50: 267 nM
  IMAX: 71%

## CC12CC(N3CCOCC3)C(O)CC1CCC1C2CCC2(C)C(C(=O)Cn3cncn3)CCC12 (stereo not drawn) [3α-Hydroxy-2β-morpholinyl-21-[1'2'4'-triazolyl)]-5α-pregnan-20-one]
  IC50: 1550 nM
  IMAX: 97%

## CC(=O)[C@H]1CC[C@H]2[C@@H]3CC[C@@H]4C[C@@](O)(CCc5ccccc5)CC[C@]4(C)[C@H]3CC[C@]12C [3α-Hydroxy-3β-(2'-phenylethyl)-5β-pregnan-20-one]
  IC50: 135 nM
  IMAX: 98%

## CC(=O)C#C[C@@]1(O)CC[C@@]2(C)[C@H](CC[C@@H]3[C@@H]2CC[C@]2(C)[C@@H](C(C)=O)CC[C@@H]32)C1 [3α-Hydroxy-3β-(3'-oxobutynyl)-5β-pregnan-20-one]
  IC50: 2690 nM
  IMAX: 107%

## CC(=O)C1CCC2C3CCC4CC(O)(C#CC=O)CCC4(C)C3CCC12C (stereo not drawn) [3α-Hydroxy-3β-(3'-oxopropynyl)-5β-pregnan-20-one]
  IC50: 1720 nM
  IMAX: 76%

## CC(=O)[C@H]1CC[C@H]2[C@@H]3CC[C@@H]4C[C@@](O)(C#CCc5ccccc5)CC[C@]4(C)[C@H]3CC[C@]12C [3α-Hydroxy-3β-(3'-phenyl-1'-propynyl)-5β-pregnan-20-one]
  IC50: 103 nM
  IMAX: 95%

## CC(=O)[C@H]1CC[C@H]2[C@@H]3CC[C@@H]4C[C@@](O)(CCCc5ccccc5)CC[C@]4(C)[C@H]3CC[C@]12C [3α-Hydroxy-3β-(3'-phenylpropyl)-5β-pregnan-20-one]
  IC50: 173 nM
  IMAX: 92%

## CC12CCC(O)(C#CCO)CC1CCC1C2CCC2(C)C(C(=O)Cn3nccn3)CCC12 (stereo not drawn) [3α-Hydroxy-3β-(3-hydroxypropyn-1-yl)-21-(1,2,3-triazol-2-yl)-5β-pregnan-20-one]
  IC50: 430 nM
  IMAX: 107%

## COCC#C[C@@]1(O)CC[C@@]2(C)[C@H](CC[C@@H]3[C@@H]2CC[C@]2(C)[C@@H](C(C)=O)CC[C@@H]32)C1 [3α-Hydroxy-3β-(3-methoxy-1-propynyl)-5β-pregnan-20-one]
  IMAX: 105%

## CC(=O)[C@H]1CC[C@H]2[C@@H]3CC[C@@H]4C[C@@](O)(C#Cc5cccnc5)CC[C@]4(C)[C@H]3CC[C@]12C [3α-Hydroxy-3β-(3-pyridyl)ethynyl-5β-pregnan-20-one]
  IC50: 138 nM
  IMAX: 100%

## C[C@]12CC[C@H]3[C@@H](CC[C@@H]4C[C@@](O)(C#CCCO)CC[C@@H]43)[C@@H]1CC[C@@H]2C(=O)Cn1ccnc1 [3α-Hydroxy-3β-(4-hydroxybutyn-1-yl)-21-(1-imidazolyl)-5β-19-norpregnan-20-one]
  IC50: 98 nM
  IMAX: 98%

## C[C@]12CC[C@](O)(C#CCCO)C[C@H]1CC[C@@H]1[C@@H]2CC[C@]2(C)[C@@H](C(=O)Cn3ccnc3)CC[C@@H]12 [3α-Hydroxy-3β-(4-hydroxybutyn-1-yl)-21-(1-imidazolyl)-5β-pregnan-20-one]
  IC50: 54 nM
  IMAX: 93%

## CC(=O)[C@H]1CC[C@H]2[C@@H]3CC[C@@H]4C[C@@](O)(C#Cc5ccncc5)CC[C@]4(C)[C@H]3CC[C@]12C [3α-Hydroxy-3β-(4-pyridyl)ethynyl-5β-pregnan-20-one]
  IC50: 149 nM
  IMAX: 103%

## CC(=O)C1CCC2C3CCC4CC(O)(C#CCn5cncn5)CCC4(C)C3CCC12C (stereo not drawn) [3α-Hydroxy-3β-[3'-(1H-1,2,4,-triazol-1yl)-1'-propynyl]-5β-pregnan-20-one]
  IC50: 843 nM
  IMAX: 99%

## CC(=O)[C@H]1CC[C@H]2[C@@H]3CC[C@@H]4C[C@@](O)(C#CCn5ccnc5)CC[C@]4(C)[C@H]3CC[C@]12C [3α-Hydroxy-3β-[3'-(N-imidazolyl)-1'-propynyl)-5β-pregnan-20-one]
  IC50: 2720 nM
  IMAX: 107%

## CC(=O)C#C[C@@]1(O)CC[C@@]2(C)[C@@H](CC[C@@H]3[C@@H]2CC[C@]2(C)[C@@H](C(C)=O)CC[C@@H]32)C1 [3α-Hydroxy-3β-[3'-oxobutynyl]-5α-pregnan-20-one]
  IC50: 6510 nM
  IMAX: 104%

## CC(=O)C1CCC2C3CCC4CC(O)(C#CCn5nccn5)CCC4(C)C3CCC12C (stereo not drawn) [3α-Hydroxy-3β-[3-(2'H-1,2,3-triazol-2'-yl)-1-propynyl]-5β-pregnan-20-one]
  IC50: 66 nM
  IMAX: 98%

## CC(=O)CCC#C[C@@]1(O)CC[C@@]2(C)[C@H](CC[C@@H]3[C@@H]2CC[C@]2(C)[C@@H](C(C)=O)CC[C@@H]32)C1 [3α-Hydroxy-3β-[5-oxo-1-hexynyl]-5β-pregnan-20-one]
  IC50: 118 nM
  IMAX: 101%

## CC(=O)[C@H]1CC[C@H]2[C@@H]3CC[C@@H]4C[C@@](O)(c5ccccc5)CC[C@]4(C)[C@H]3CC[C@]12C [3α-Hydroxy-3β-phenyl-5β-pregnan-20-one, 3α-hydroxy-3β-phenyl-5β-pregnan-20-one]
  IC50: 382 nM
  IMAX: 86%

## C[C@]12CC[C@@H](O)C[C@H]1CC[C@@H]1[C@@H]2CC[C@]2(C)[C@@H](C(=O)Cn3cncn3)CC[C@@H]12 [3α-Hydroxy-21-(1',2',4'-triazol-1-yl)-5β-pregnan-20-one]
  IMAX: 60%

## C[C@]12CC[C@@H](O)C[C@H]1CC[C@@H]1[C@@H]2CC[C@]2(C)[C@@H](C(=O)Cn3ccnc3)CC[C@@H]12 [3α-Hydroxy-21-(1'-imidazolyl)-5β-pregnan-20-one]
  IC50: 73 nM
  IMAX: 57%

## C[C@]12CC[C@@H](O)C[C@@H]1CC[C@@H]1[C@@H]2CC[C@]2(C)[C@@H](C(=O)Cn3ccc(=O)[nH]c3=O)CC[C@@H]12 [3α-Hydroxy-21-(1'-uracil)-5α-pregnan-20-one]
  IC50: 434 nM
  IMAX: 90%

## C[C@]12CC[C@@H](O)C[C@H]1CC[C@@H]1[C@@H]2CC[C@]2(C)[C@@H](C(=O)Cn3ncnn3)CC[C@@H]12 [3α-Hydroxy-21-(2'H-1,2,3,4-tetrazol-2'-yl)-5β-pregnan-20-one]
  IC50: 46 nM
  IMAX: 78%

## CC12CCC(O)(C#CCO)CC1CCC1C2CCC2(C)C(C(=O)Cn3ccnn3)CCC12 (stereo not drawn) [3α-hydroxy-3β-(3-hydroxypropyn-1-yl)-21-(1,2,3-triazol-1-yl)-5β-pregnan-20-one]
  IC50: 1090 nM
  IMAX: 101%

## CC(=O)OCC(=O)c1ccc(C#C[C@@]2(O)CC[C@@]3(C)[C@H](CC[C@@H]4[C@@H]3CC[C@]3(C)[C@@H](C(C)=O)CC[C@@H]43)C2)cc1 [3α-hydroxy-3β-(4'-acetoxyacetylphenylethynyl)-5β-pregnan-20-one]
  IC50: 171 nM
  IMAX: 91%

## CCOC(=O)c1ccc(C#C[C@@]2(O)CC[C@@]3(C)[C@H](CC[C@@H]4[C@@H]3CC[C@]3(C)[C@@H](C(C)=O)CC[C@@H]43)C2)cc1 [3α-hydroxy-3β-(4'-carboxyphenylethynyl)-5β-pregnan-20-one ethyl ester]
  IMAX: 98%

## CC(=O)[C@H]1CC[C@H]2[C@@H]3CC[C@@H]4C[C@@](O)(C#Cc5ccc(C(F)(F)F)cc5)CC[C@]4(C)[C@H]3CC[C@]12C [3α-hydroxy-3β-(4'-trifluoromethylphenylethynyl)-5β-pregnan-20-one]
  IC50: 52 nM
  IMAX: 87%

## C[C@]12CC[C@](O)(C#CCCO)C[C@H]1CC[C@@H]1[C@@H]2CC[C@]2(C)[C@@H](C(=O)Cn3ccnn3)CC[C@@H]12 [3α-hydroxy-3β-(4-hydroxybutyn-1-yl)-21-(1,2,3-triazol-1-yl)-5β-pregnan-20-one]
  IC50: 79 nM
  IMAX: 96%

## CC12CCC(O)(C#CCCO)CC1CCC1C2CCC2(C)C(C(=O)Cn3cncn3)CCC12 (stereo not drawn) [3α-hydroxy-3β-(4-hydroxybutyn-1-yl)-21-(1,2,4-triazol-1-yl)-5β-pregnan-20-one]
  IMAX: 96%

## C[C@]12CC[C@H]3[C@@H](CC[C@@H]4C[C@@](O)(C#CCCO)CC[C@@H]43)[C@@H]1CC[C@@H]2C(=O)Cn1ccnn1 [3α-hydroxy-3β-(4-hydroxybutyn-1-yl)-21-(1H-1,2,3-triazol-1-yl)-5β-19-norpregnan-20-one]
  IC50: 124 nM
  IMAX: 95%

## C[C@]12CC[C@H]3[C@@H](CC[C@@H]4C[C@@](O)(C#CCCO)CC[C@@H]43)[C@@H]1CC[C@@H]2C(=O)Cn1nccn1 [3α-hydroxy-3β-(4-hydroxybutyn-1-yl)-21-(2H-1,2,3-triazol-2-yl)-5β-19-norpregnan-20-one]
  IC50: 56 nM
  IMAX: 93%
